# Test results from paper doi:10.1101/706028v1 (biorxiv, 2019).
# How the values were obtained:
# Nluc-SMO = Nluc-SMO (Mus musculus, UniProt P56726, D477G/E522K); experiment: NanoBRET saturation binding, live cells; assay type: cell-based
# ΔCRD Nluc-SMO = ΔCRD Nluc-SMO (Mus musculus, UniProt P56726, D477G/E522K); experiment: NanoBRET saturation binding, live cells; assay type: cell-based
# Sequence of ΔCRD Nluc-SMO (P56726 185-793 D477G/E522K): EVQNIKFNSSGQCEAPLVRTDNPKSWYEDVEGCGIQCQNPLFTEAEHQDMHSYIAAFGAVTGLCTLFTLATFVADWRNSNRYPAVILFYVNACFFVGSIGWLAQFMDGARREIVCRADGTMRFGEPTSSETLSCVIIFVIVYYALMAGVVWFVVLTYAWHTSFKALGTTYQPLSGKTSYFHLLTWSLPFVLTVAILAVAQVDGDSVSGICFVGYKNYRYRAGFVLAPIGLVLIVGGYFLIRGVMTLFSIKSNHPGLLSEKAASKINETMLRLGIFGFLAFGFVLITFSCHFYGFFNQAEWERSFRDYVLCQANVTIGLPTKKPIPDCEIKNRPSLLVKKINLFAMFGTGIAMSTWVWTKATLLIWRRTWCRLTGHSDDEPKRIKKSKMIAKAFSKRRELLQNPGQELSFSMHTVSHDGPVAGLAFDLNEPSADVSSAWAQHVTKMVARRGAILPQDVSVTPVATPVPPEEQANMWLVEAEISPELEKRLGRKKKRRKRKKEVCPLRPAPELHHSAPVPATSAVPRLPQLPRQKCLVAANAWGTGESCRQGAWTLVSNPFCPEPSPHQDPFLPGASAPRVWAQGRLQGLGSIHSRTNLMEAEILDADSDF
# Sequence of Nluc-SMO (P56726 33-793 D477G/E522K): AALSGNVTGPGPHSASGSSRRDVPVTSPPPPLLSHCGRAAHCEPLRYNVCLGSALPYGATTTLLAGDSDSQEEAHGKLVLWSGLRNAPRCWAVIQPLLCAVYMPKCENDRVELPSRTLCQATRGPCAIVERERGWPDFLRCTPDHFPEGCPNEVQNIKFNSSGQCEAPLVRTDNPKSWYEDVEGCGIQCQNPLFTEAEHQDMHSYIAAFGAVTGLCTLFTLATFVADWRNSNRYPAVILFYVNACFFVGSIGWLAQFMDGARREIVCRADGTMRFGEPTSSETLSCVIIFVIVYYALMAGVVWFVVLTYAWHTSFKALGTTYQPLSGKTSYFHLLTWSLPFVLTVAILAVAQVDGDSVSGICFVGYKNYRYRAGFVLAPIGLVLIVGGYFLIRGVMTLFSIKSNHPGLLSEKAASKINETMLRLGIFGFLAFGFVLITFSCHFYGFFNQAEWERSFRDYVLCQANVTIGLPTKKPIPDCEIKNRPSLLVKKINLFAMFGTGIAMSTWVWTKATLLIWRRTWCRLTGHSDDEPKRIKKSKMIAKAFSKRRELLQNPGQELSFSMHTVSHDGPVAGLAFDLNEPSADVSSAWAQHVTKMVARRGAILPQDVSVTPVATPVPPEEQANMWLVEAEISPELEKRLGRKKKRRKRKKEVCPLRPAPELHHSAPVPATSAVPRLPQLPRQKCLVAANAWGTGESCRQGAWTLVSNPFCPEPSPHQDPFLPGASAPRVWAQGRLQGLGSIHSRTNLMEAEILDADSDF
compound,measurement,setting,value
CC1=CC(C)=[N+]2C1=Cc1ccc(CCC(=O)NCCCCCC(=O)NCCN3C[C@@H](C)C[C@H]4O[C@]5(CC[C@@H]6C(=C5C)C[C@H]5[C@H]6CC=C6C[C@@H](O)CC[C@@]65C)[C@H](C)[C@@H]43)n1[B-]2(F)F [BODIPY-cyclopamine],Kd,Nluc-SMO,666 ± 122 nM
same,Kd,ΔCRD Nluc-SMO,450 ± 38.7 nM
